We go through 16 compounds from US11459338B2, “Heterocyclic compounds as PRMT5 inhibitors” (JUBILANT EPISCRIBE LLC, priority 2018, dated 2022).

Read-outs that look alike come from different tables or passages of the source.

One assay concerns the target T1, PRMT5/MEP50 (Homo sapiens, UniProt O14744).
T1 construct: Full-length human PRMT5 (NP_006100)
Description: PRMT5/MEP50 enzyme assay on peptide substrates (3H-SAM Flashplate). Particulars: PRMT5/MEP50 10 nM, H4 1-15aa peptide 100 nM, 3H-SAM 1 μM. In kind it is biochemical.

For a further assay, the system named is Z-138 cells. Description: Z-138 long term proliferation assay (Cell Titer Glo). The assay is classed as cell-based. The conditions noted are these: Homo sapiens; for GI50: 192 h, Z-138 cells, cell viability, day 8, read-out: PRMT5 Z138 GI50 Day 8 μM; for IC50: Z-138, 192 h, summary of Table 1, read-out: IC50 value (all the three assays): Z138 GI50 Day 8. The essentials:
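Z-138 cells exposed to ten-point 3-fold dilutions (top 10 μM, 0.3% DMSO) for 96 h at 37° C., 5% CO2, then re-dosed for four more days.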
In general terms: Cellular ATP, detected with luciferase, serves as a proxy for viable cell number.

Assay [1] deals with Symmetric di-methyl arginine in Z-138 cells. Description: Z-138 methylation assay, ELISA for detection of symmetric di-methyl arginine. Particulars: Homo sapiens. In kind it is cell-based. On the procedure: General reagents. […] Iscove's Modified Dulbecco's Medium (IMDM), Horse serum, penicillin-streptomycin, PBS and TMB-ELISA substrate solution were purchased from ThermoFisher Scientific. Symmetric di-methyl arginine antibody was purchased from Cell Signaling Technologies.Anti-SNRPD3/SmD3 antibody was purchased from Sigma-Aldrich.
ELISA for detection of Symmetric di-methyl arginine. […] A compound source plate was prepared by performing ten-point 3-fold dilution in DMSO, such that the final top concentration of the compound was 10 μM, and DMSO was 0.3%. The total volume of compounds added was 20 μL. The cells were incubated for 96 h at 37° C., 5% CO2. Z-138 cells were directly lysed in media with 3× Lysis Buffer (1×: 10 mM HEPES pH7.9, 5 mM MgCl2, 1M NaCl, 0.25M Sucrose, 1% Triton X-100, 1 mM PMSF, Protease & Phosphatase inhibitors). […] Plates were incubated at room temperature for a minimum of 3 h and then washed with PBS-Tween 20 (0.05%). The plates were blocked with 5% BSA at room temperature for 1 h, washed with PBS-Tween 20 and incubated with primary antibody at 4 C overnight.

The mark [2] stands for this setting: Z-138, 96 h, summary of Table 1, read-out: IC50 value (all the three assays): Z138 SDMA ELISA Day 4.
The mark [3] stands for this setting: Z-138 cells, 96 h (day 4), read-out: PRMT5 Z138 SDMA ELISA Day 4 μM.

T1 sequence (O14744 whole entry): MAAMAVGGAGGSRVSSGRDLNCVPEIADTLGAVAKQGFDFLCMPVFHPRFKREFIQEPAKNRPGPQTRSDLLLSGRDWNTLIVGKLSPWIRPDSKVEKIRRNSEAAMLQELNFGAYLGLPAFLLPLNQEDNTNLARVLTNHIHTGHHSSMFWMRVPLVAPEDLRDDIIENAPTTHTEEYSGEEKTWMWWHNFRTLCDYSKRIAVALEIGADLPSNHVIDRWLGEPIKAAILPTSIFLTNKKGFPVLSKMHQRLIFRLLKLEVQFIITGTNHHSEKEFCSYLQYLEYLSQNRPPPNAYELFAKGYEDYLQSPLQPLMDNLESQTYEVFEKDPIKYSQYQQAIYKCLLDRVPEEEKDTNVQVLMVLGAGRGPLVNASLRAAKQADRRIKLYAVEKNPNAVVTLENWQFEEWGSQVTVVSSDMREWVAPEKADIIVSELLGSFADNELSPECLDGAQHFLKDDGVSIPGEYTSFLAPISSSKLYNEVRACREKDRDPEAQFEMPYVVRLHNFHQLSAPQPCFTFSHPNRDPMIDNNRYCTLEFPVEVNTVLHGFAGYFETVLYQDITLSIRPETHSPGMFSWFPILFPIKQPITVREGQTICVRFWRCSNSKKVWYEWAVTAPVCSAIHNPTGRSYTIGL
T1 sequence (Q9BQA1 whole entry partner): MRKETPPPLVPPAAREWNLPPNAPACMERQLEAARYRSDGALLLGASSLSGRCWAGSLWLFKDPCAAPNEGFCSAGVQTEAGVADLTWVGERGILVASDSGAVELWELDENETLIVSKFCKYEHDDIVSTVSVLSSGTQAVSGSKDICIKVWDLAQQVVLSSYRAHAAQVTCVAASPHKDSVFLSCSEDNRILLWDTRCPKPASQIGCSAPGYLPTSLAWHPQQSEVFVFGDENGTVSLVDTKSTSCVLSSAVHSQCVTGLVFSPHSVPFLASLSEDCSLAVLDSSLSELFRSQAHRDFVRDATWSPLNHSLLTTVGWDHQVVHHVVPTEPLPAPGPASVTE

The GI50 is the concentration giving 50% growth inhibition. Take `O=C(NC[C@H](O)CN1CCc2ccccc2C1)c1cn2cc(-c3cnn([C@@H]4CCOC4)c3)ccc2n1` [Example 20, N—((S)-3-(3,4-dihydroisoquinolin-2(1H)-yl)-2-hydroxypropyl)-6-(1-((R)-tetrahydrofuran-3-yl)-1H-pyrazol-4-yl)imidazo[1,2-a]pyridine-2-carboxamide]: the IC50 (against PRMT5/MEP50; in the assay with Z-138 cells; in assay [1] (setting [2]); in assay [1] (setting [3])) was 10 to 1000 nM each time. The GI50 in the assay on Z-138 cells lay within 10 to 1000 nM.

Take `O=C(NCC(O)CN1CCc2ccccc2C1)c1cn2cc(C(F)(F)F)ccc2n1` (stereo not shown) [Example 1, N-(3-(3,4-dihydroisoquinolin-2(1H)-yl)-2-hydroxypropyl)-6-(trifluoromethyl)imidazo[1,2-a]pyridine-2-carboxamide]: the IC50 (at PRMT5/MEP50; with Z-138 cells; in assay [1] (setting [2]); in assay [1] (setting [3])) was 10 to 1000 nM throughout. Further, the GI50 with Z-138 cells lay in the range of 10 to 1000 nM.

Regarding `O=C(NC[C@H](O)CN1CCc2ccccc2C1)c1cn2cc(-c3ccc(F)cc3)ccc2n1` [Example 17, (S)—N-(3-(3,4-dihydroisoquinolin-2(1H)-yl)-2-hydroxypropyl)-6-(4fluorophenyl) imidazo[1,2-a]pyridine-2-carboxamide], the IC50 (on PRMT5/MEP50; with Z-138 cells; in assay [1] (setting [2]); in assay [1] (setting [3])) was 10 to 1000 nM throughout. Also, the GI50 in the assay with Z-138 cells was in the range of 10 to 1000 nM.

In the case of `Cc1nc(-c2ccc3nc(C(=O)NC[C@H](O)CN4CCc5ccccc5C4)cn3c2)no1` [Example 6, (S)—N-(3-(3,4-dihydroisoquinolin-2(1H)-yl)-2-hydroxypropyl)-6-(5-methyl-1,2,4-oxadiazol-3-yl)imidazo[1,2-a]pyridine-2-carboxamide], the IC50 (on PRMT5/MEP50; in the assay with Z-138 cells; in assay [1] (setting [2]); in assay [1] (setting [3])) was 10 to 1000 nM throughout. Besides, the GI50 in the assay on Z-138 cells fell in the range of 10 to 1000 nM.

In the case of `O=C(NC[C@H](O)CN1CCc2ccccc2C1)c1cn2cc(N3CCC(F)C3)ncc2n1` (stereo partly drawn) [Example 73, N—((S)-3-(3,4-dihydroisoquinolin-2(1H)-yl)-2-hydroxypropyl)-6-(3-fluoropyrrolidin-1-yl)imidazo[1,2-a]pyrazine-2-carboxamide], the results for the IC50 (against PRMT5/MEP50; in assay [1] (setting [3])) were 1000 to 5000 nM and 10 to 1000 nM, respectively. Besides, the GI50 in the assay on Z-138 cells is 1000 to 5000 nM.

Consider `O=C(NC[C@H](O)CN1CCc2ccccc2C1)c1cn2c(n1)CCC(C(F)(F)F)C2` (stereo partly drawn) [Example 114, N—((S)-3-(3,4-dihydroisoquinolin-2(1H)-yl)-2-hydroxypropyl)-6-(trifluoromethyl)-5,6,7,8-tetrahydroimidazo[1,2-a]pyridine-2-carboxamide], for which the values for the IC50 (at PRMT5/MEP50; in assay [1] (setting [3])) were 1000 to 5000 nM and 10 to 1000 nM, respectively. Moreover, the 50% growth inhibitory concentration (GI50) in the assay on Z-138 cells was 10 to 1000 nM.

`O=C(NCC(O)CN1CCc2ccccc2C1)c1cn2c(n1)CCC(c1ccccc1)C2` (stereo not shown) [Example 110, N-(3-(3,4-dihydroisoquinolin-2(1H)-yl)-2-hydroxypropyl)-6-phenyl-5,6,7,8-tetrahydroimidazo[1,2-a]pyridine-2-carboxamide]: the figures for the IC50 (on PRMT5/MEP50; in assay [1] (setting [3])) were 1000 to 5000 nM and 10 to 1000 nM, respectively. Moreover, in the assay on Z-138 cells, the GI50 lay in the range of 1000 to 5000 nM.

Take `O=C(NC[C@H](O)CN1CCc2ccccc2C1)c1cn2c(n1)COC(c1ccc(F)cc1)C2` (stereo partly drawn) [Example 116, N—((S)-3-(3,4-dihydroisoquinolin-2(1H)-yl)-2-hydroxypropyl)-6-(4-fluorophenyl)-5,6-dihydro-8H-imidazo[2,1-c][1,4]oxazine-2-carboxamide]: the IC50 (against PRMT5/MEP50; with Z-138 cells; in assay [1] (setting [2]); in assay [1] (setting [3])) was 10 to 1000 nM throughout. The GI50 in the assay with Z-138 cells was 10 to 1000 nM.

For the compound `CC1CCc2nc(C(=O)NCC(O)CN3CCc4ccccc4C3)cn2C1` (stereo not shown) [Example 102, N-(3-(3,4-dihydroisoquinolin-2(1H)-yl)-2-hydroxypropyl)-6-methyl-5,6,7,8-tetrahydroimidazo[1,2-a]pyridine-2-carboxamide], the values for the IC50 (on PRMT5/MEP50; in assay [1] (setting [3])) were 1000 to 5000 nM and 10 to 1000 nM, respectively. For the same compound, the GI50 in the assay with Z-138 cells is 10 to 1000 nM.

Consider `O=C(NC[C@H](O)CN1CCc2ccccc2C1)c1cn2c(n1)COC(c1ccccc1)C2` (stereo partly drawn) [Example 112, N—((S)-3-(3,4-dihydroisoquinolin-2(1H)-yl)-2-hydroxypropyl)-6-phenyl-5,6-dihydro-8H-imidazo[2,1-c][1,4]oxazine-2-carboxamide], for which the IC50 against PRMT5/MEP50 fell in the range of 1000 to 5000 nM; in assay [1] (setting [3]) it was 10 to 1000 nM. The GI50 with Z-138 cells is 1000 to 5000 nM.

As for `CCCC1CCc2nc(C(=O)NCC(O)CN3CCc4ccccc4C3)cn2C1` (stereo not shown) [Example 106, N-(3-(3,4-dihydroisoquinolin-2(1H)-yl)-2-hydroxypropyl)-6-propyl-5,6,7,8-tetrahydroimidazo[1,2-a]pyridine-2-carboxamide], the IC50 (on PRMT5/MEP50; in assay [1] (setting [3])) was 10 to 1000 nM in each case. Further, the 50% growth inhibitory concentration (GI50) in the assay with Z-138 cells lay in the range of 1000 to 5000 nM.

In the case of `CS(=O)(=O)Nc1ccc2nc(C(=O)NC[C@H](O)CN3CCc4ccccc4C3)cn2c1` [Example 41, (S)—N-(3-(3,4-dihydroisoquinolin-2(1H)-yl)-2-hydroxypropyl)-6-(methylsulfonamido)imidazo[1,2-a]pyridine-2-carboxamide], the IC50 was over 5000 nM against PRMT5/MEP50 and 10 to 1000 nM in assay [1] (setting [3]). Further, in the assay with Z-138 cells, the GI50 lay within 10 to 1000 nM.

On to `O=C(NC[C@H](O)CN1CCc2ccccc2C1)c1cn2c(n1)CCC(c1ccc(F)cc1)C2` (stereo partly drawn) [Example 115, N—((S)-3-(3,4-dihydroisoquinolin-2(1H)-yl)-2-hydroxypropyl)-6-(4-fluorophenyl)-5,6,7,8-tetrahydroimidazo[1,2-a]pyridine-2-carboxamide], for which the IC50 (on PRMT5/MEP50; in the assay on Z-138 cells; in assay [1] (setting [2]); in assay [1] (setting [3])) was 10 to 1000 nM throughout. Further, the GI50 in the assay with Z-138 cells is 10 to 1000 nM.

Regarding `O=C(NCC(O)CN1CCc2ccccc2C1)c1cn2c(n1)CC(c1ccccc1)CC2` (stereo not shown) [Example 109, N-(3-(3,4-dihydroisoquinolin-2(1H)-yl)-2-hydroxypropyl)-7-phenyl-5,6,7,8-tetrahydroimidazo[1,2-a]pyridine-2-carboxamide], the IC50 was 1000 to 5000 nM against PRMT5/MEP50 and 10 to 1000 nM in assay [1] (setting [3]). In addition, the GI50 with Z-138 cells was over 5000 nM.

Consider `Cn1ccc(-c2ccc3nc(C(=O)NC[C@H](O)CN4CCc5ccccc5C4)cn3n2)cc1=O` [Example 48, (S)—N-(3-(3,4-dihydroisoquinolin-2(1H)-yl)-2-hydroxypropyl)-6-(1-methyl-2-oxo-1,2-dihydropyridin-4-yl)imidazo[1,2-b]pyridazine-2-carboxamide], for which the IC50 (on PRMT5/MEP50; in the assay on Z-138 cells; in assay [1] (setting [2]); in assay [1] (setting [3])) was 10 to 1000 nM each time. The GI50 in the assay with Z-138 cells fell in the range of 10 to 1000 nM.

Turning to `CC(C)c1ccc2nc(C(=O)NCC(O)CN3CCc4ccccc4C3)cn2c1` (stereo in doubt) [Example 12, (S)—N-(3-(3,4-dihydroisoquinolin-2(1H)-yl)-2-hydroxypropyl)-6-isopropylimidazo [1,2-a]pyridine-2-carboxamide], the IC50 (against PRMT5/MEP50; in the assay on Z-138 cells; in assay [1] (setting [2]); in assay [1] (setting [3])) was 10 to 1000 nM throughout. The GI50 in the assay on Z-138 cells was in the range of 10 to 1000 nM.
